Test results from patent US20110052556A1, “PHARMACEUTICAL COMPOSITION COMPRISING RACETAM AND CARNITINE AND PROCESS FOR ITS PREPARATION” (Biolab Sanus Farmaceutical Ltda, priority 2008, published 2011).

System: mitochondria isolated from liver of rat
Assay: Protection against mitochondrial swelling induced by statins
Type: biochemical
Experimental: Mitochondria were isolated from adult rat liver (MFR) using the technique of differential centrifugation, according to […] and HOGEBOOM (1951), after a fast of 12 h. The liver, removed after death of the animal by cerebral concussion, was wash in a 250 mM saccharose solution containing buffer 10 mM HEPES pH 7.2 and 0.5 mM EGTA, and chopped with a scissors and homogenized in a Potter-Elvehjem homogeneizer. The material was centrifuged at 2500×g for 10 minutes. The resulting supernatant was centrifuged for 10 minutes at 8000×g. The supernatant was discarded and the sediment resuspended in 250 mM saccharose, 5 mM HEPES pH 7.2, 0.3 mM EGTA, and centrifuged as the previous step. […]
Mitochondrial swelling was calculated based on the decrease in tubidity of a mitochondrial suspension measured at 520 nm in a Hitachi spectrometer model U-3000 for a time period between 0 and 800 seconds.
This procedure of evaluation of mitochondria modification is based on fact that the mitochondria suspensions are turbid and scatter incident light. […] A spectrofotometric measurement of the absorbance reduction at 540 nm (Ca^2+-dependent NAD(P)^+-induced alterations in membrane permeability of the mitochondria. Integration of Mitochondrial Function, Ed. J. Lemasters, Plenum, New York, pp. 535-542) is made in a spectrophotometer connected to a potentiometric recorder. […]

## C[N+](C)(C)C[C@H](O)CC(=O)[O-] [L-carnitine]
Swelling induced by Simvastatin, Pravastatin and Lovastatin
  smallest dose that presented some protective effect on mitochondrial swelling induced by statins: 0.5 µg/mL

## COC1=C(OC)C(=O)C(C/C=C(\C)CC/C=C(\C)CC/C=C(\C)CC/C=C(\C)CC/C=C(\C)CC/C=C(\C)CC/C=C(\C)CC/C=C(\C)CC/C=C(\C)CCC=C(C)C)=C(C)C1=O [coenzyme Q10, 2,3,dimethoxyl-5-methyl-6-decaprenil-1,4-benzoquinone]
MFR 0.5 mg/ml, Piracar 0.25/0.65 μg/ml, CoQ 5 μg/ml, FIG. 5
  protection against mitochondria swelling induced by Simvastatin: effect of the addition of coenzyme Q10 in the protection against mitochondria swelling
